Where two headings read alike, the source gives them in different places.
Tests used:
[1] = target: T1, L-type Ca2+ channels in A10 cells (Rattus norvegicus, UniProt P22002); experiment: Inhibition of L-type calcium flux in A10 cells (FLIPR); assay type: cell-based
T1 construct: which endogenously expresses L-type calcium channels; host or cells: A10 rat aortic smooth muscle cells
Method: Measurement of L-type Ca^2+ Channel Blocking Potencies of Compounds in A10 cells
Calcium flux through voltage-sensitive calcium channels was assessed by time-resolved monitoring of the fluorescence of pre-loaded calcium-sensitive dyes using FLIPR, a fluorescent image plate reader (Molecular Devices Co.). The A10 smooth muscle cell line derived from embryonic thoracic aorta of the DBIX rat (ATCC, CRL-1476) which endogenously expresses L-type calcium channels. The growth media for A10 cells was Ham's F12/DME high glucose (Irvine Scientific, 9052), supplemented with 20% fetal bovine serum (HyClone Labs, A-1115-L), and 1% each of L-glutamine and antibiotic-antimycotic (same source as above).
Cells were grown to confluency and replated on black-sided 96-well plates (Costar, 3603) for use in FLIPR. Two days after replating, growth media was removed and cells were loaded at 37° C. with 100 μL media containing 1 μM Oregon Green 488 Bapta-1 dye (Molecular Probes, O-6807) for 1 to 3 hours. The dye-containing media was then washed away with buffer (composition in mM: 1.25 CaCl2, 1.2 MgSO4, 11 glucose, 10 HEPES, 3.0 KCl, 137.0 NaCl, pH 7.4 with Tris base) in a Denley Cellwash (Labsystems, CW018B). The residual buffer volume was adjusted to 50 μL. A 5 minute drug-pre-incubation period at 35° C. was initiated when 50 μL of drug-containing buffer was pipetted into the cell plate with the 96-well pipettor integrated in the FLIPR apparatus. Fluorescent counts were monitored at 20 second intervals for 360 seconds, beginning 60 seconds prior to the delivery of drug-containing buffer. Following drug addition, 100 μL aliquots of a high K^+, depolarizing stimulus (composition in mM: 1.25 CaCl2, 1.2 MgSO4, 11 glucose, 10 HEPES, 140.0 KCl, pH 7.4 with Tris base) were added to each well and fluorescence was monitored at 1 second intervals for 120 seconds, beginning 10 seconds prior to the stimulus addition. CCD camera exposure time was 0.4 seconds, laser excitation was at 488 nm with a power of 0.2-0.5W, and a 510 to 560 nm bandpass interference filter preceded the camera.
Data was analyzed as a summation of fluorescent counts above basal during the stimulation period (an approximation of area under the curve), after normalizing the data with a spatial uniformity correction (for variations in laser illumination and cell density) and a negative control correction (zero calcium increase defined as the fluorescence reading in the presence of saturating pharmacologic block of the respective calcium channel). Drug effects were expressed as percent inhibition of fluorescence from an average of 8 K^+-stimulated wells which were pre-treated in the drug incubation period with buffer only.
In the A10 cells, the pharmacologic agent used to define zero calcium influx was nitrendipine (RBI, N-144), at a final concentration of 1.0×10^−6 M.

DBA/2 mice = experiment: animal or person; assay type: in vivo; settings: for responders at 30 mg/kg / responders at 10 mg/kg / responders at 100 mg/kg: Mus musculus, iv, read-out: Number of Mice Protected from Tonic Convulsions
Method: Audiogenic Seizure Model in DBA/2 Mice
In Vivo Biological Protocol
A compound of the present invention was dissolved in water using 10% (weight/volume) Emulphor (GAF Cop., Wayne N.J. surfactant. Substances were administered by intravenous injection the retro-orbital venous sinus. […] All the male mice, 3-4 weeks old were obtained from Jackson Laboratories Bar Harbour, Me. Immediately before anticonvulsant testing, mice were placed upon a wire mesh, 4 inches square suspended from a steel rod. The square was slowly inverted through 180 degree and mice observed for 30 seconds. Any mouse falling from the wire mesh was scored as ataxia.
Mice were placed into an enclosed acrylic plastic chamber (21 cm in height, approximately 30 cm diameter) with a high-frequency speaker (4 cm diameter) in the center of the top lid. An audio signal generator (Protek model B-810) was used to produce a continuous sinusoidal tone that was swept linearly in frequency between 8 kHz and 16 kHz once each 10 msec. The average sound pressure level (SPL) during stimulation was approximately 100 dB at the floor of the chamber. Mice were placed within the chamber and allowed to acclimatize for 1 minute. DBA/2 mice in the vehicle-treated group responded to the sound stimulus (applied until tonic extension occurred, or for a maximum of 60 sec) with a characteristic seizure sequence consisting of wild running followed by clonic seizures, and later by tonic extension, and finally by respiratory arrest and death in 80% or more of the mice. In vehicle-treated mice, the entire sequence of seizures to respiratory arrest lasts approximately 15-20 seconds.
The incidence of all the seizure phases in the drug-treated and vehicle-treated mice was recorded, and the occurrence of tonic seizures were used for calculating anticonvulsant ED50 values by probit analysis. Mice were used only once for testing at each time and dose point.

T1 sequence (P22002 whole entry): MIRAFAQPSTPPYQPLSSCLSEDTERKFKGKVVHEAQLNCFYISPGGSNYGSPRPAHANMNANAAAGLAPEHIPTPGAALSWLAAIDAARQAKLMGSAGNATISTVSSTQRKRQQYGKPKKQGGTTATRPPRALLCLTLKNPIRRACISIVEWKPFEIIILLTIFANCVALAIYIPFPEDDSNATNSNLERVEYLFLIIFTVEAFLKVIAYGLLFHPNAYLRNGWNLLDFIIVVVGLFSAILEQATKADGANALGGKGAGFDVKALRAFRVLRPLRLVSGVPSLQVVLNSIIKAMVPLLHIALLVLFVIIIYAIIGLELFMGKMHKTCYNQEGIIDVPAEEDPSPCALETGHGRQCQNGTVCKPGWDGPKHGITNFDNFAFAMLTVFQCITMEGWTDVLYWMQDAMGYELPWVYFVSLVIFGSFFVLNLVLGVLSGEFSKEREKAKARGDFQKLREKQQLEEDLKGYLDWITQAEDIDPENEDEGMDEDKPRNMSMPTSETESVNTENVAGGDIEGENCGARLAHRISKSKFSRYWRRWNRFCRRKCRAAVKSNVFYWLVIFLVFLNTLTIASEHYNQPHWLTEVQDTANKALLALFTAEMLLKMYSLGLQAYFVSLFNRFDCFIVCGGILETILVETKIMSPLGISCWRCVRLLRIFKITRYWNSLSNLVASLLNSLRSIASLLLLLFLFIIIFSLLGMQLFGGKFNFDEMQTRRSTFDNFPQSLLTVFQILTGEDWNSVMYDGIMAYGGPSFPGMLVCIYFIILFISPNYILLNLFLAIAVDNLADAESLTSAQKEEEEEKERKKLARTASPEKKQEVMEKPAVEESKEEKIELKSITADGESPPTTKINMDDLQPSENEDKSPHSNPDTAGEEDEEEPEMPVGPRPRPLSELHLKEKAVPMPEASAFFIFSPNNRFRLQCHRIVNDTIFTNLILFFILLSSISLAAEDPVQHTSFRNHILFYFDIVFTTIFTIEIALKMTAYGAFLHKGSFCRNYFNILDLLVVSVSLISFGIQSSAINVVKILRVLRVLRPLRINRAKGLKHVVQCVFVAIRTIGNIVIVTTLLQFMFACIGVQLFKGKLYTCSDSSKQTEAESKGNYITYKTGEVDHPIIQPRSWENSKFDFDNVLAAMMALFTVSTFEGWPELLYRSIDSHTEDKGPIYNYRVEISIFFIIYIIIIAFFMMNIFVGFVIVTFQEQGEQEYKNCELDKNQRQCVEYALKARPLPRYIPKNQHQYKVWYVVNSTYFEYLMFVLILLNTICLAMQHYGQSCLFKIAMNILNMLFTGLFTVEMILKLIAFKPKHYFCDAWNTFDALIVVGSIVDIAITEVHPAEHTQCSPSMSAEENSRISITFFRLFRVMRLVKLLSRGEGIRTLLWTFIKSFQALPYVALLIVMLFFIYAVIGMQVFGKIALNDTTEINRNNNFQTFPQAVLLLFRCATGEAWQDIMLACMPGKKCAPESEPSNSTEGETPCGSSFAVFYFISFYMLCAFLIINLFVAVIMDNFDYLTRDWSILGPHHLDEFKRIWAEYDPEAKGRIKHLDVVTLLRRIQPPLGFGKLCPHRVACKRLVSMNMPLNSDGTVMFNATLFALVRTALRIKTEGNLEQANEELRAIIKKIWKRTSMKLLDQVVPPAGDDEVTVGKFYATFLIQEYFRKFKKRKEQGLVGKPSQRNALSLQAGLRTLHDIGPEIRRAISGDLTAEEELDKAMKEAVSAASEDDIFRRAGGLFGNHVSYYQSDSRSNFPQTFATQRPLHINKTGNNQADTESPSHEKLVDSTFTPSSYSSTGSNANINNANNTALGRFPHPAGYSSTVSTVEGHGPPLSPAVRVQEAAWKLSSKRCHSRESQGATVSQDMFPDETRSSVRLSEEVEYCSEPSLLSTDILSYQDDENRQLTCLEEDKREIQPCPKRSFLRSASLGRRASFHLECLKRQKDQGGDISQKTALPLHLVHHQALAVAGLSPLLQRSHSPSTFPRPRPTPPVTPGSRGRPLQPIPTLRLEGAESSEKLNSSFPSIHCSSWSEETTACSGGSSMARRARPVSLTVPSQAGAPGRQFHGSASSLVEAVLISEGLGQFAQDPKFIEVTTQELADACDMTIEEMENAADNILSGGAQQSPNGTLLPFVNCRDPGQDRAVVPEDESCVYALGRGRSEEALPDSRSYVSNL
T1 sequence (P54290 25-944 partner limits assumed): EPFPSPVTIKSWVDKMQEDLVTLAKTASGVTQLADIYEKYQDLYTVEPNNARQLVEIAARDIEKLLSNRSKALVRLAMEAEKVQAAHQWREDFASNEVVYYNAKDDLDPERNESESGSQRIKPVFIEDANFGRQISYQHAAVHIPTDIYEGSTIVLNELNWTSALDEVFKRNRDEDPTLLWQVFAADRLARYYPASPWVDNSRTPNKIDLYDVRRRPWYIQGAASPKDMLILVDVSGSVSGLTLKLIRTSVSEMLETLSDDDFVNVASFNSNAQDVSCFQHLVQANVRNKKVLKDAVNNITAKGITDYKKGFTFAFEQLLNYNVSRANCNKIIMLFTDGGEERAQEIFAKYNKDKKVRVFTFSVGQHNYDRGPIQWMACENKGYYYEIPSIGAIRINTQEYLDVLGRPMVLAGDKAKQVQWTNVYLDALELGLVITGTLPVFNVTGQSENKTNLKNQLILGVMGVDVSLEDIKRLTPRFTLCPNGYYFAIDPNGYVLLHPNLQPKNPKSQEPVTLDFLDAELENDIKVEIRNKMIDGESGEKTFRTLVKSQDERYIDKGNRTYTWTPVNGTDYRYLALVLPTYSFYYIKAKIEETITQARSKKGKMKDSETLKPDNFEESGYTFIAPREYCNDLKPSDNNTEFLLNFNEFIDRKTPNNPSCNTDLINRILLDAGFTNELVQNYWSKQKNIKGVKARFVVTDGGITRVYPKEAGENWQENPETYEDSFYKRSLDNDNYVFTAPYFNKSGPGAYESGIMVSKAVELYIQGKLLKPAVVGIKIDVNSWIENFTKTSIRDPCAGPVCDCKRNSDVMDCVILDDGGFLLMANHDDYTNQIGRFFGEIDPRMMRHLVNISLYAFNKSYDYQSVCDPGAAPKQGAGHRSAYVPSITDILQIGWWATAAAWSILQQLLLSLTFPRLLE
T1 sequence (P54290 945-1091 partner limits assumed): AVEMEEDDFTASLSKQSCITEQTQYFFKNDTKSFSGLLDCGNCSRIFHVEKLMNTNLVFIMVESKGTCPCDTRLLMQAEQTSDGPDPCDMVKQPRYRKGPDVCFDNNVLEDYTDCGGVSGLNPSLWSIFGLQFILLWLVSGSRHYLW
T1 sequence (P54287 whole entry partner): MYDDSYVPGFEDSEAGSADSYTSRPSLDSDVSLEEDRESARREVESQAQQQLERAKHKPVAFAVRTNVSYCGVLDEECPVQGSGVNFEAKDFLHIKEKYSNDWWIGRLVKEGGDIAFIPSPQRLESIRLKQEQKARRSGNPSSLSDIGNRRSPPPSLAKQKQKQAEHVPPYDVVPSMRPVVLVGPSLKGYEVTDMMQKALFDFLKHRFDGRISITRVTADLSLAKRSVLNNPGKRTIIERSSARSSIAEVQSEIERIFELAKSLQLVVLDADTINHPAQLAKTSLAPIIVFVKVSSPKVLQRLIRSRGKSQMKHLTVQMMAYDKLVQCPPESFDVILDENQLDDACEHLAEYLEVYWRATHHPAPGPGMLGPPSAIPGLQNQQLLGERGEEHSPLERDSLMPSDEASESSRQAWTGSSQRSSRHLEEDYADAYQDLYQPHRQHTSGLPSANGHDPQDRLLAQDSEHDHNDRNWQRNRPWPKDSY

| Structure (SMILES) | IC50 [1] [nM] | responders at 30 mg/kg (DBA/2 mice; 0.25 h) [%] | also measured |
| --- | --- | --- | --- |
| CC(C)C[C@H](NC(=O)N1CCCCCC1)C(=O)N[C@@H](Cc1ccc(C=Cc2ccccc2)cc1)C(=O)NC(C)(C)C [Example 141, [S-(R*,R*)]-Azepane-1-carboxylic acid {1-[1-tert-butylcarbamoyl-2-(4-styryl-phenyl)-ethylcarbamoyl]-3-methyl-butyl}-amide] | 410 | – | – |
| CC(C)C[C@H](NC(=O)N1CCCCCC1)C(=O)N[C@@H](Cc1ccc(OCc2ccccc2)cc1)C(N)=O [Example 21, [S-(R*,R*)]-Azepane-1-carboxylic acid {1-[2-(4-benzyloxy-phenyl)-1-carbamoyl-ethylcarbamoyl]-3-methyl-butyl}-amide] | 1600 | – | responders at 30 mg/kg (DBA/2 mice; 0.75 h): 0% |
| CC(C)C[C@H](NC(=O)N1CCCCCC1)C(=O)N[C@@H](Cc1ccc(OCc2ccccc2)cc1)C(=O)OC(C)(C)C [Example 1] | 1720 | 100 | responders at 10 mg/kg (DBA/2 mice; 0.25 h): 0%; responders at 100 mg/kg (DBA/2 mice; 0.25 h): 100%; responders at 100 mg/kg (DBA/2 mice; 0.5 h): 100%; responders at 10 mg/kg (DBA/2 mice; 0.75 h): 0%; responders at 100 mg/kg (DBA/2 mice; 1 h): 0% |
| CC(C)C[C@H](NC(=O)N1CCCCCC1)C(=O)N[C@@H](Cc1ccc(OCc2ccncc2)cc1)C(=O)OC(C)(C)C [Example 26, [S-(R*,R*)]-2-{2-[(Azepane-1-carbonyl)-amino]-4-methyl-pentanoylamino}-3-[4-(pyridin-4-ylmethoxy)-phenyl]-propionic acid tert-butyl ester] | 3000 | – | responders at 10 mg/kg (DBA/2 mice; 0.25 h): 100% |
| CC(C)(C)OC(=O)[C@H](Cc1ccc(OCc2ccccc2)cc1)NC(=O)CNC(=O)N1CCCCCC1 (stereo in doubt) [Example 8, [S-(R*,R*)]-2-{2-[(Azepane-1-carbonyl)-amino]-acetylamino}-3-(4-benzyloxy-phenyl)-propionic acid tert-butyl ester] | 180 | – | Number of Mice Protected from Tonic Convulsions (DBA/2 mice; 30 mg/Kg iv, 15 min post treatment): 4/5 |
| CC(C)C[C@H](NC(=O)N1CCCCCC1)C(=O)N[C@@H](Cc1ccc(OCc2ccccc2)cc1)C(=O)NCCCn1ccnc1 [Example 237, [S-(R*,R*)]-Azepane-1-carboxylic acid {(1-[2-(4-benzyloxy phenyl)-1-(3-imidazol-1-yl-propylcarbamoyl)-ethylcarbamoyl]-3-methyl-butyl}-amide] | 2200 | 0 | – |
| CC(C)C[C@H](NC(=O)N1CCCCCC1)C(=O)N[C@@H](Cc1ccc(OCc2ccccn2)cc1)C(=O)OC(C)(C)C [Example 25, [S-(R*,R*)]-2-{2-[(Azepane-1-carbonyl)-amino]-4-methyl-pentanoylamino}-3-[4-(pyridin-2-ylmethoxy)-phenyl]-propionic acid tert-butyl ester] | 1700 | 100 | – |
| CC(C)(C)OC(=O)[C@H](Cc1ccc(OCc2ccccc2)cc1)NC(=O)[C@H](Cc1ccccc1)NC(=O)N1CCCCCC1 [Example 16] | 280 | – | – |
| CC(C)C[C@H](NC(=O)N1CCCCCC1)C(=O)N[C@@H](Cc1ccc(C#CC2(O)CCCCC2)cc1)C(=O)NC(C)(C)C [Example 138, [S-(R*,R*)]-Azepane-1-carboxylic acid (1-({-tert-butylcarbamoyl-2-[4-(1-hydroxy-cyclohexylethynyl)-phenyl]-ethylcarbamoyl}-3-methyl-butyl)-amide] | 1600 | – | – |

Source: US6423689B1, “Peptidyl calcium channel blockers” (Warner-Lambert Company, priority 1997, dated 2002)
